In US20130289070A1, “Use of Levocabastine for Modulating Generation of Pro-Inflammatory Cytokines” (Bausch & Lomb Incorporated, priority 2007, published 2013):

System: EoL-1 (human eosinophilic leukaemia cell line) cells
Assay: TNF-α-induced cytokine release, EoL-1 cells differentiated with PMA (Luminex)
Type: cell-based
Design: key to IL-1α (PMA), p of decrement / IL-1β (PMA), p of decrement / IL-1ra (PMA), p of decrement / IL-5 (PMA), p of decrement / IL-7 (PMA), p of decrement / IL-8 (PMA), p of decrement / IP-10 (PMA), p of decrement / MCP-1 (PMA), p of decrement / MIP-1β (PMA), p of decrement / RANTES (PMA), p of decrement / VEGF (PMA), p of decrement / Fractalkine (PMA), p of decrement / MIP-1α (PMA), p of decrement: ns = non significant
Procedure: EoL-1 (human eosinophilic leukaemia cell line) cells (Saito et al., 1985; Mayumi, 1992) were maintained in RPMI-1640 medium with L-glutamine supplemented with 10% (v/v) FBS at 37° C. in a humidified atmosphere with 5% CO2. Where indicated, 24 h before the experiment 25 ng/mL PMA ((phorbol 12-myristate 13-acetate, purchased from Sigma Aldrich) was added to the medium to induce eosinophil granulation and differentiation (Ohtsu et al., 1993; Zimmermann et al., 2000).
Half-million cells were aliquoted per point in a 24 well plate; each experiment was performed in triplicate and carried out in parallel with eosinophils differentiated and non differentiated with PMA (25 ng/mL, 24 h). Cells were suspended in low serum medium (RPMI-1640, 0.1% (v/v) FBS). TNF-α was used to induce cytokine secretion as previously described by Steube et al. (2000), and the net release was obtained by comparison to the basal (non-TNF-α treated). In the first experiment we evaluated the concentration and time relation between TNF-α stimulation and cytokine release. Therefore, 5, 10, and 25 ng/mL of TNF-α was administered to the cells at 0, ½, 1, 2, 3, 6, 12 and 24 h (data not shown). An aliquot of 150 μL of supernate was collected for cytokines' analysis. […] Differentiated and non-differentiated EoL-1 cells were exposed from 0.1 to 2.3 mM levocabastine ([…]Levocabastine 0.05% solution eye drops containing cyclodextrins, without benzalkonium chloride), and aliquots of the supernates were collected after 12 and 24 h. The content of cytokines at time zero was estimated by treating the cells with 400 nM calcimycin (A-23187), which is a cytolytic agent that frees all the mediators from the cytoplasmic compartment. In addition, for each experiment we tested the effect of the vehicle, which was added to the wells in a concentration equal to the maximum amount used for drug dilution.
Samples (supernates 12 and 24 h) in triplicate were analyzed using Luminex 200™ (Luminex, Austin, Tex.) and Beadview software v1.0 (Upstate Cell Signaling Solutions, Temecula, Calif.).
All data are presented as mean±SEM for the indicated number of experiments. Statistical significance was determined by Newman-Keuls test after ANOVA using GraphPad Prism (version 3.0; GraphPad Software Inc., San Diego, Calif., USA). P-values<0.05 were considered to be significant.

[1] = 24 h, FN + Levocabastine 2 mM vs FN
[2] = 24 h, Levocabastine 2 mM vs TNF-α

## C[C@@H]1CN([C@H]2CC[C@](C#N)(c3ccc(F)cc3)CC2)CC[C@]1(C(=O)O)c1ccccc1 [Levocabastine, levocabastine]
12 h, TNF-α vs Lev 0.5 mM
  IL-1α (PMA), p of decrement: ns
  IL-1β (PMA), p of decrement: ns
  IL-5 (PMA), p of decrement: ns
  IL-7 (PMA), p of decrement: ns
  IL-8 (PMA), p of decrement: ns
  IP-10 (PMA), p of decrement: p < 0.01
  MCP-1 (PMA), p of decrement: ns
  MIP-1β (PMA), p of decrement: ns
  RANTES (PMA), p of decrement: ns
  VEGF (PMA), p of decrement: ns
12 h, TNF-α vs Lev 1.0 mM
  Fractalkine (PMA), p of decrement: ns
  IL-1ra (PMA), p of decrement: p < 0.001
  IL-1α (PMA), p of decrement: ns
  IL-1β (PMA), p of decrement: ns
  IL-5 (PMA), p of decrement: ns
  IL-7 (PMA), p of decrement: ns
  IL-8 (PMA), p of decrement: ns
  IP-10 (PMA), p of decrement: p < 0.05
  MCP-1 (PMA), p of decrement: ns
  MIP-1β (PMA), p of decrement: ns
  RANTES (PMA), p of decrement: ns
  VEGF (PMA), p of decrement: p < 0.05
12 h, TNF-α vs Lev 2.3 mM
  Fractalkine (PMA), p of decrement: ns
  IL-1ra (PMA), p of decrement: ns
  IL-1α (PMA), p of decrement: ns
  IL-1β (PMA), p of decrement: ns
  IL-5 (PMA), p of decrement: ns
  IL-7 (PMA), p of decrement: ns
  IL-8 (PMA), p of decrement: ns
  IP-10 (PMA), p of decrement: ns
  MCP-1 (PMA), p of decrement: ns
  MIP-1β (PMA), p of decrement: ns
  RANTES (PMA), p of decrement: ns
  VEGF (PMA), p of decrement: p < 0.01
12 h, TNF-α vs Lev 0.1-2.3 mM
  MIP-1α (PMA), change of secretion: concentration dependent increase of
  MIP-1α (PMA), p of increase: cytokine secretion p < 0.001
[1]
  Fractalkine (PMA), p of decrement: Increase
  G-CSF (PMA), p of decrement: Increase
  GM-CSF (PMA), p of decrement: ns
  IL-1ra (PMA), p of decrement: Increase
  IL-1α (PMA), p of decrement: Increase
  IL-1β (PMA), p of decrement: ns
  IL-5 (PMA), p of decrement: ns
  IL-6 (PMA), p of decrement: ns
  IL-7 (PMA), p of decrement: Increase
  IL-8 (PMA), p of decrement: Increase
  IL-10 (PMA), p of decrement: ns
  IL-12p40 (PMA), p of decrement: P < 0.01
  IP-10 (PMA), p of decrement: ns
  MCP-1 (PMA), p of decrement: Increase
  MIP-1α (PMA), p of decrement: Increase
  MIP-1β (PMA), p of decrement: Increase
  RANTES (PMA), p of decrement: Increase
  TGF-α (PMA), p of decrement: ns
  VEGF (PMA), p of decrement: P < 0.001
[2]
  Fractalkine (PMA), p of decrement: ns
  G-CSF (PMA), p of decrement: ns
  GM-CSF (PMA), p of decrement: ns
  IL-1ra (PMA), p of decrement: Increase
  IL-1α (PMA), p of decrement: Increase
  IL-1β (PMA), p of decrement: ns
  IL-5 (PMA), p of decrement: ns
  IL-6 (PMA), p of decrement: ns
  IL-7 (PMA), p of decrement: ns
  IL-8 (PMA), p of decrement: Increase
  IL-10 (PMA), p of decrement: ns
